Results on 21 molecules are retold here after US20110098352A1, “N,N-DISUBSTITUTED AMINOALKYLBIPHENYL ANTAGONISTS OF PROSTAGLANDIN D2 RECEPTORS” (AMIRA PHARMACEUTICALS, INC., priority 2008, published 2011).

In assay [1] the target is T1, human DP1 receptor (Homo sapiens, UniProt Q13258).
T1 construct: tissue Biological Specialty Corporation; host or cells: human platelets, membranes
T1 sequence (Q13258 1-359): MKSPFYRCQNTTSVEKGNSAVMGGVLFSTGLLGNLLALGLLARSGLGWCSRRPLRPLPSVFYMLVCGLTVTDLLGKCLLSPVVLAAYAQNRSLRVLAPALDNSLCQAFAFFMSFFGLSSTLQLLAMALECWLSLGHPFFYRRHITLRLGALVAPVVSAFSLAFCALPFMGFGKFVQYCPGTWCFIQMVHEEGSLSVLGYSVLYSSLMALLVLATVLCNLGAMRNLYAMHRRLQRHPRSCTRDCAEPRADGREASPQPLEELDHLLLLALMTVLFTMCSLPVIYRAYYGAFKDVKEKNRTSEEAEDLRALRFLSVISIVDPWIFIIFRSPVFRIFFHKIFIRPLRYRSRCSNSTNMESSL
Description: DP1 radioligand membrane binding assay using [3H]BWA868C. The settings on record: [3H]BWA868C binding, human platelet membranes; read-out: hDP1. Here is the method:
The ability of a compound to bind to the human DP1 receptor was evaluated via a radioligand membrane binding assay using the DP1 selective synthetic ligand [^3H]BWA868C. Packed human platelets (Biological Specialty Corporation), were resuspended in 6 volumes of Hepes/HBSS buffer (10 mM Hepes, 1 mM DTT in Hanks Balanced Salt Solution (HBSS)), lysed and centrifuged at 75,000×g to pellet the membranes. Membranes were resuspended in Hepes/HBSS buffer to approximately 12 mg protein/ml. Membranes (20 μg protein/well) are incubated in 96-well plates with 2 nM [^3H]BWA868C and test compound in Assay Buffer (50 mM Hepes, 10 mM MnCl2, 1 mM EDTA, plus or minus 0.2% human serum albumin, pH 7.4) for 60 minutes at room temperature. The reactions are terminated by rapid filtration through Whatman GF/C glass fibre filter plates. The filter plates were pre-soaked in […] polethylenimine for 30 minutes at room temperature then washed in Wash Buffer (50 mM Hepes, 0.5 M NaCl pH 7.4) prior to harvesting. After harvesting, the filter plates are washed 3 times with 1 ml cold Wash Buffer then dried. Scintillant is then added to the plates and the radioactivity retained on the filters is determined on a Packard TopCount (Perkin Elmer). Specific binding is determined as total radioactive binding minus non-specific binding in the presence of 10 μM BWA868C. IC50s were determined using GraphPad prism analysis of drug titration curves.

Assay [2] concerns the target T2, human DP2 receptor (Homo sapiens, UniProt Q9Y5Y4).
T2 construct: expressed in transfected cells
T2 sequence (Q9Y5Y4 1-395): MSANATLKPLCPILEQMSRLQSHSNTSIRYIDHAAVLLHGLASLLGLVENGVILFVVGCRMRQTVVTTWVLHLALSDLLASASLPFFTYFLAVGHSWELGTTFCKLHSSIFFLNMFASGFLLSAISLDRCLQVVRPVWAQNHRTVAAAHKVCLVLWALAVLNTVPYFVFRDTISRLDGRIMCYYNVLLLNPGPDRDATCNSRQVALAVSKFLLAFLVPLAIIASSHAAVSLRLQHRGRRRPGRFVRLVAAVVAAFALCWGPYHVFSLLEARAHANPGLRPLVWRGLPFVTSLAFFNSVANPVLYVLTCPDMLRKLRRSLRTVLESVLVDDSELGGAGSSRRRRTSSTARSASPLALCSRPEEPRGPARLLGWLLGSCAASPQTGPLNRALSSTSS
The assay is described as follows: DP2/CRTH2 radioligand binding assay using [3H]PGD2. Here is the method:
The ability of a compound to bind to the human DP2 receptor is assessed via a radioligand binding assay using [^3H]PGD2. HEK293 cells stably expressing recombinant human DP2 are resuspended in 10 mM Hepes, 7.4 containing 1 mM DTT, lysed and centrifuged at 75,000×g to pellet the membranes. The membranes are resuspended in 10 mM Hepes, 7.4 containing 1 mM DTT and 10% glycerol to approximately 5 mg protein/ml. Membranes (2-10 μg protein/well) are incubated in 96-well plates with 1 nM [^3H]PGD2 and test compound in Assay Buffer (50 mM Hepes, 10 mM MnCl2, 1 mM EDTA, plus or minus 0.2% human serum albumin, pH 7.4) for 60 minutes at room temperature. The reactions are terminated by rapid filtration through Whatman GF/C glass fibre filter plates. The filter plates were pre-soaked in 0.33% polythylenimine for 30 minutes at room temperature then washed in Wash Buffer (50 mM Hepes, 0.5 M NaCl pH 7.4) prior to harvesting. After harvesting, the filter plates are washed 3 times with 1 ml cold Wash Buffer then dried. Scintillant is then added to the plates and the radioactivity retained on the filters is determined on a Packard TopCount (Perkin Elmer). Specific binding is determined as total radioactive binding minus non-specific binding in the presence of 10 μM PGD2. IC50s were determined using GraphPad prism analysis of drug titration curves.

Where [3] appears, read: [3H]PGD2 binding, membranes of HEK293 cells expressing recombinant human DP2, read-out: hDP2.

Each structure is given as a SMILES string. Read-outs that look alike come from different tables or passages of the source. A value given as a limit tells only on which side of the number the result lay.

As to `CCN(Cc1cc(C(F)(F)F)ccc1-c1cc(CC(=O)O)ccc1OC)C(=O)OCc1ccccc1` [Compound 1-28, {2′-[(Benzyloxycarbonyl-ethyl-amino)-methyl]-6-methoxy-4′-trifluoromethyl-biphenyl-3-yl}-acetic acid], the IC50 in assay [1] was more than 1000 nM.

`CCN(Cc1cc(C(F)(F)F)ccc1-c1cc(CC(=O)O)ccc1OC)C(=O)C1CC1` [Compound 1-33, {2′-[(Cyclopropanecarbonyl-ethyl-amino)-methyl]-6-methoxy-4′-trifluoromethyl-biphenyl-3-yl}-acetic acid]: the values for the IC50 in assay [1] and in assay [2] were more than 1000 nM and less than 300 nM, respectively.

As to `COc1ccc(CC(=O)O)cc1-c1ccc(C(F)(F)F)cc1CN(C(=O)OCc1ccccc1)C1CCC1` [Compound 1-34, {2′-[(Benzyloxycarbonyl-cyclobutyl-amino)-methyl]-6-methoxy-4′-trifluoromethyl-biphenyl-3-yl}-acetic acid], the IC50 in assay [1] is more than 1000 nM.

With `COc1ccc(CC(=O)O)cc1-c1ccc(C(F)(F)F)cc1CN(C(=O)OCc1ccccc1)C1CC1` [Compound 1-36, {2′-[(Benzyloxycarbonyl-cyclopropyl-amino)-methyl]-6-methoxy-4′-trifluoromethyl-biphenyl-3-yl}-acetic acid], the IC50 in assay [1] is more than 1000 nM.

Turning to `COc1ccc(CC(=O)O)cc1-c1ccc(C(=O)O)cc1CN(CC(F)(F)F)C(C)=O` [Compound 1-37, 2-{[Acetyl-(2,2,2-trifluoro-ethyl)-amino]-methyl}-5′-carboxymethyl-2′-methoxy-biphenyl-4-carboxylic acid], the IC50 in assay [1] and in assay [2] (setting [3]) was more than 1000 nM each time.

Turning to `CCN(Cc1cc(C(F)(F)F)ccc1-c1cc(CC(=O)O)ccc1OC)C(=O)OCc1cc(Cl)cc(Cl)c1` [Compound 1-38, (2′-{[(3,5-Dichloro-benzyloxycarbonyl)-ethyl-amino]-methyl}-6-methoxy-4′-trifluoromethyl-biphenyl-3-yl)-acetic acid], the IC50 in assay [1] is more than 1000 nM.

In the case of `CCN(Cc1cc(C(F)(F)F)ccc1-c1cc(CC(=O)O)ccc1OC)C(=O)OCc1ccc(F)cc1` [Compound 1-41, (2′-{[Ethyl-(4-fluoro-benzyloxycarbonyl)-amino]-methyl}-6-methoxy-4′-trifluoromethyl-biphenyl-3-yl)-acetic acid], the IC50 in assay [1] is more than 1000 nM.

`O=C(O)Cc1ccc(F)c(-c2ccc(C(F)(F)F)cc2CN(CC(F)(F)F)C(=O)OCc2ccccc2)c1` [Compound 1-49, (2′-{[Benzyloxycarbonyl-(2,2,2-trifluoro-ethyl)-amino]-methyl)-6-fluoro-4′-trifluoromethyl-biphenyl-3-yl)-acetic acid]: the IC50 in assay [1] and in assay [2] (setting [3]) was more than 1000 nM each time.

In the case of `CCN(Cc1cc(C(F)(F)F)ccc1-c1cccc(CC(=O)O)c1)C(=O)OCc1ccccc1` [Compound 1-143, {2′-[(Benzyloxycarbonyl-ethyl-amino)-methyl]-4′-trifluoromethyl-biphenyl-3-yl}-acetic acid], the figures for the IC50 in assay [1] and in assay [2] (setting [3]) were 300 to 1000 nM and less than 300 nM, respectively.

In the case of `CCN(Cc1cc(C(F)(F)F)ccc1-c1cc(CC(=O)O)ccc1OC)C(=O)NCc1ccc(Cl)c(Cl)c1` [Compound 1-152, {2′-[3-(3,4-Dichloro-benzyl)-1-ethyl-ureidomethyl]-6-methoxy-4′-trifluoromethyl-biphenyl-3-yl}-acetic acid], the IC50 in assay [1] was more than 1000 nM; in assay [2] (setting [3]), less than 300 nM.

Consider `CCN(Cc1cc(C(F)(F)F)ccc1-c1cc(CC(=O)O)ccc1OC)C(=O)C1CCC1` [Compound 1-206, {2′-[(Cyclobutanecarbonyl-ethyl-amino)-methyl]-6-methoxy-4′-trifluoromethyl-biphenyl-3-yl}-acetic acid], for which, in assay [2] (setting [3]), the IC50 is less than 300 nM.

Take `CCN(Cc1cc(S(C)(=O)=O)ccc1-c1cc(CC(=O)O)ccc1OC)C(=O)OCc1ccccc1` [Compound 1-215, {2′-[(Benzyloxycarbonyl-ethyl-amino)-methyl]-4′-methanesulfonyl-6-methoxy-biphenyl-3-yl}-acetic acid]: the IC50 in assay [2] (setting [3]) was less than 300 nM.

Consider `CCN(Cc1cc(C(C)(C)O)ccc1-c1cc(CC(=O)O)ccc1OC)C(=O)OCc1ccccc1` [Compound 1-216, [2′-[(Benzyloxycarbonyl-ethyl-amino)-methyl]-4′-(1-hydroxy-1-methyl-ethyl)-6-methoxy-biphenyl-3-yl]-acetic acid], for which, in assay [2] (setting [3]), the IC50 was less than 300 nM.

On to `CCN(Cc1cc(C(=O)O)ccc1-c1cc(CC(=O)O)ccc1OC)C(=O)OCc1ccccc1` [Compound 1-226, 2-[(Benzyloxycarbonyl-ethyl-amino)-methyl]-5′-carboxymethyl-2′-methoxy-biphenyl-4-carboxylic acid], for which the IC50 in assay [2] (setting [3]) was less than 300 nM.

On to `CCN(Cc1cc(SC)ccc1-c1cc(CC(=O)O)ccc1OC)C(=O)C1CC1` [Compound 1-241, {2′-[(Cyclopropanecarbonyl-ethyl-amino)-methyl]-6-methoxy-4′-methylsulfanyl-biphenyl-3-yl}-acetic acid], for which, in assay [2] (setting [3]), the IC50 was less than 300 nM.

Consider `CCN(Cc1cc(C(F)(F)F)ccc1-c1cccc(CC(=O)O)c1)C(=O)C1CC1` [Compound 1-244, {2′-[(Cyclopropanecarbonyl-ethyl-amino)-methyl]-4′-trifluoromethyl-biphenyl-3-yl}-acetic acid], for which the IC50 in assay [2] (setting [3]) was less than 300 nM.

As to `CCN(Cc1cc(C(F)(F)F)ccc1-c1cc(CC(=O)O)ccc1OC)C(=O)C(C)(C)C` [Compound 1-245, (2′-{[(2,2-Dimethyl-propionyl)-ethyl-amino]-methyl}-6-methoxy-4′-trifluoromethyl-biphenyl-3-yl)-acetic acid], in assay [2] (setting [3]), the IC50 was more than 1000 nM.

For the molecule `CCN(Cc1cc(Br)ccc1-c1cc(CC(=O)O)ccc1OC)C(=O)C1CC1` [Compound 1-247, {4′-Bromo-2′-[(cyclopropanecarbonyl-ethyl-amino)-methyl]-6-methoxy-biphenyl-3-yl}-acetic acid], in assay [2] (setting [3]), the IC50 is less than 300 nM.

Turning to `CCN(Cc1cc(C(F)(F)F)ccc1-c1cc(CC(=O)O)ccc1OC)C(=O)NCc1ccc(O)cc1` [Compound 1-252, {2′-[1-Ethyl-3-(4-hydroxy-benzyl)-ureidomethyl]-6-methoxy-4′-trifluoromethyl-biphenyl-3-yl}-acetic acid], in assay [2] (setting [3]), the IC50 is less than 300 nM.

For the molecule `CCN(Cc1cc(C(F)(F)F)ccc1-c1cc(CC(=O)O)ccc1OC)C(=O)NCc1ccccc1O` [Compound 1-253, {2′-[1-Ethyl-3-(2-hydroxy-benzyl)-ureidomethyl]-6-methoxy-4′-trifluoromethyl-biphenyl-3-yl}-acetic acid], the IC50 in assay [2] (setting [3]) was less than 300 nM.

As to `CCN(Cc1cc(C(F)(F)F)ccc1-c1cc(CC(=O)O)ccc1OC)C(=O)NCc1cccc(O)c1` [Compound 1-257, {2′-[1-Ethyl-3-(3-hydroxy-benzyl)-ureidomethyl]-6-methoxy-4′-trifluoromethyl-biphenyl-3-yl}-acetic acid], the IC50 in assay [2] (setting [3]) was less than 300 nM.
